Results on 21 molecules are retold here after paper PMC8151276, “An Integrated Approach toward NanoBRET Tracers for Analysis of GPCR Ligand Engagement” (Molecules, 2021).

The target in this experiment is T1, LGR5 (Homo sapiens, UniProt O75473).
T1 construct: purchased Promega (in-house HiBiT-GPCR construct library, NanoBRET)
T1 sequence (O75473 22-907): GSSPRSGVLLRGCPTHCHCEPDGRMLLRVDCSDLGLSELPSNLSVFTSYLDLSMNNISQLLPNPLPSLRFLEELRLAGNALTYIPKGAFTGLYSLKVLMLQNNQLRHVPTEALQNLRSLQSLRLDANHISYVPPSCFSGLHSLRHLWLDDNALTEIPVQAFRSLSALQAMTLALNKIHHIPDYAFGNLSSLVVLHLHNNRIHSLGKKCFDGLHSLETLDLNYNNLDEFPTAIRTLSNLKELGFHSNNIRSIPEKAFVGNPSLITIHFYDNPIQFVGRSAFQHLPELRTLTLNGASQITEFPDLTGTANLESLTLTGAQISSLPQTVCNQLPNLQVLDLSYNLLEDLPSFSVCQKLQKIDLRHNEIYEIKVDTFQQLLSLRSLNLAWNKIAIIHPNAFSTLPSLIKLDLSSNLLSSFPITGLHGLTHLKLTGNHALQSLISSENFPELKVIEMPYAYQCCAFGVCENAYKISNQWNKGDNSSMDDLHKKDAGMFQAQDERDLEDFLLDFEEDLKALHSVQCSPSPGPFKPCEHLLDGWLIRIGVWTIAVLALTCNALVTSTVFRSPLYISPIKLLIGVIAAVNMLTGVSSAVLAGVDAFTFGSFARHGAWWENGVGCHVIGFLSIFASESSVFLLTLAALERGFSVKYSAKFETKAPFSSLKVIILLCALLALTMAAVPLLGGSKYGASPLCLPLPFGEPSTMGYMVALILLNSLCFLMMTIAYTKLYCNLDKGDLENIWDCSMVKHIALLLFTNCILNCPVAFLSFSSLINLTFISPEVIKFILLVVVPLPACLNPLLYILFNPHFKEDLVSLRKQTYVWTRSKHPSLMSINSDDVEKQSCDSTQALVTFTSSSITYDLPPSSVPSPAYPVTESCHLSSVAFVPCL
Briefly: NanoBRET screen HiBiT-LGR5 in HEK293. The class given is binding. The procedure:
Each tracer candidate was screened across the entire library of HiBiT-GPCR constructs using NanoBRET as the detection modality. As depicted in Figure 4A, the specificity of interactions was evaluated through decrease in BRET due to competitive displacement of a bound tracer by excess parental compound. Each tracer was analyzed for binding to each HiBiT-GPCR fusion in the absence and in the presence of competing parental compound. Briefly, HEK293 cells were transfected with HiBiT-GPCR constructs diluted into promoterless DNA to reduce expression and maximize translocation to the cell surface. Each tracer candidate was then screened at concentrations of 1 μM and 0.1 μM across cells expressing these fusions. Cells were treated for 1.5 h with tracer either alone or in the presence of 20 μM competing parental compound (i.e., control). BRET was measured upon addition of purified LgBiT and subsequent complementation with HiBiT genetically fused to a GPCR. The specificity of interactions was assessed through a decrease in BRET signal due to competitive displacement of the bound tracer. To further gauge the robustness of these interactions, the fold response over the control (i.e., BRETtracer/BRETcontrol) was calculated. We chose a 1.5-fold response, which translates to ≥7-fold signal over noise as the minimal threshold required to score an interaction as positive.
HiBiT-GPCR DNA constructs were diluted in 10 mM Tris pH 8 to a final concentration of 0.01 μg/μL, arrayed in 96-well plates and stored at −20 °C. For transfection, HEK293 cells were suspended in Opti-MEM (without phenol red) supplemented with 2% fetal bovine serum (Seradigm) and 100 units/mL penicillin–streptomycin (Gibco) at a final concentration of 220,000 cells/mL and dispensed into white 96-well plates at 90 μL/well. Subsequent transfections and screens were carried using an Agilent Bravo Automated Liquid Handling Platform. First, the 96-well HiBiT DNA arrays were diluted 25-fold in Opti-MEM (without serum or phenol red) to a final concentration of 0.0004 μg/μL and 20 μL of the diluted DNAs were transferred into new 96-well plates. Next, promoterless carrier DNA (1 μg/μL) was diluted 25-fold (0.04 μg/μL) and then dispensed into the diluted arrays at 20 μL/well. Following brief mixing, Viafect transfection reagent (Promega) diluted 16-fold into Opti-MEM was dispensed into the plates at 40 μL/well. After mixing by pipetting, plates were incubated for 10 min on the pipetting station deck. The DNA-transfection reagent complexes were then added to plates containing cells. To facilitate the screen, 10 μL of DNA-transfection reagent complexes were added in duplicates to the top 4 and bottom 4 rows, resulting in two identical 48-well arrays per plate. Plates with transfected cells were incubated for 18–20 h at 37 °C/5% CO2. A screen of each tracer across the entire library using two different concentrations requires duplicate plates of transfected cells. Depending on the number of tracers being screened, transfections can be scaled up using the same ratios. The next day, for each tracer, four 20× screening solutions in tracer dilution buffer (Promega) were prepared: two duplicates at final concentration of 20 μM and two duplicates at a final concentration of 2 μM. […] The four resulting solutions were diluted 4-fold in Opti-MEM without serum or phenol red to generate 5× solutions (5 µM and 0.5 µM tracer +/− 100 μM competing compound). To screen the library, a BioTek MultiFlo FX liquid dispenser was used to dispense 22.5 µL of tracer solution to the top 4 rows and 22.5 µL tracer + competing compound solution to the 4 bottom rows. Plates were briefly mixed on an orbital shaker and incubated for 1.5 h at room temperature. […] Plates were briefly mixed on an orbital shaker and incubated for 15 min to allow complementation.

SMILES strings stand for the structures.

As for `COc1ccc2c(n1)c(CCNC(C)=O)cn2CCNC(=O)CCc1ccc2n1[B-](F)(F)[N+]1=C(c3ccc[nH]3)C=CC1=C2` [Azamelatonin-1-NB590], the “NanoBRET Fold Response” value reads like this: (0.1μM tracer) 0.96; (1μM tracer) 0.96.

On to `CC(C)N(CC[C@H](c1ccccc1)c1cc(CCNC(=O)c2ccc(CNC(=O)CCc3ccc4n3[B-](F)(F)[N+]3=C(c5ccc[nH]5)C=CC3=C4)cc2)ccc1O)C(C)C` [Tolterodine-BZ-NB590], for which the “NanoBRET Fold Response” value runs as follows: (LGR5, tracer 0.1μM) 0.91; (LGR5, tracer 1μM) 0.89.

Take `O=C(CCc1ccc2n1[B-](F)(F)[N+]1=C(c3ccc[nH]3)C=CC1=C2)NCCOCCOCCNC(=O)OCCOCCN1CCN(C2=Nc3ccccc3Sc3ccccc32)CC1` [Quetiapine-a-2-NB590]: the “NanoBRET Fold Response” value reads like this: (LGR5, tracer 0.1μM) 1.02; (LGR5, tracer 1μM) 0.78.

Turning to `Cc1cc2c(s1)Nc1ccccc1N=C2N1CCN(CCCNC(=O)CCOCCOCCOCCOCCNC(=O)CCc2ccc3n2[B-](F)(F)[N+]2=C(c4ccc[nH]4)C=CC2=C3)CC1` [Olanzapine-a-2-NB590], the “NanoBRET Fold Response” value is reported as 0.91 (LGR5, tracer 0.1μM) and 0.81 (LGR5, tracer 1μM).

As for `O=C(CCc1ccc2n1[B-](F)(F)[N+]1=C(c3ccc[nH]3)C=CC1=C2)NCc1ccc(C(=O)NCCOCCOCCNCC(O)COc2cccc3ccccc23)cc1` (stereo not drawn) [Propranolol-3-NB590], the “NanoBRET Fold Response” value runs as follows: (LGR5, 0.1μM) 1.10; (LGR5, 1μM) 0.93.

`CN1CCN(C2=Nc3cc(Cl)ccc3N(CC(=O)NCCOCCOCCOCCOCCNC(=O)CCc3ccc4n3[B-](F)(F)[N+]3=C(c5ccc[nH]5)C=CC3=C4)c3ccccc32)CC1` [Clozapine-c-2-NB590]: for the setting “LGR5, 1μM tracer”, the “NanoBRET Fold Response” value came out at 0.83.

On to `O=C(CCc1ccc2n1[B-](F)(F)[N+]1=C(c3ccc[nH]3)C=CC1=C2)NCc1ccc(C(=O)NCCOCCC(=O)N[C@@H]2CC[C@@]3(O)[C@H]4Cc5ccc(O)c6c5[C@@]3(CCN4CC3CC3)[C@H]2O6)cc1` [Naltrexone-3-NB590], for which the “NanoBRET Fold Response” value reads like this: (LGR5, tracer 0.1μM) 0.41; (LGR5, tracer 1μM) 1.33.

`CC(C)N(CC[C@H](c1ccccc1)c1cc(CCNC(=O)CCOCCOCCOCCOCCNC(=O)CCc2ccc3n2[B-](F)(F)[N+]2=C(c4ccc[nH]4)C=CC2=C3)ccc1O)C(C)C` [Tolterodine-2-NB590]: the “NanoBRET Fold Response” value by setting is: (LGR5, tracer 0.1μM) 0.91; (LGR5, tracer 1μM) 0.71.

As for `Cc1nc2n(c(=O)c1CCN1CCC(c3noc4cc(F)ccc34)CC1)CCCC2OC(=O)NCCOCCOCCOCCOCCNC(=O)CCc1ccc2n1[B-](F)(F)[N+]1=C(c3ccc[nH]3)C=CC1=C2` (stereo not drawn) [Risperidone-2-NB590], the “NanoBRET Fold Response” value (LGR5, tracer 0.1μM) is on record as 1.07 and the “NanoBRET Fold Response” value (LGR5, tracer 1μM) came to 1.18.

On to `O=C(CCOCCOCCOCCOCCNC(=O)CCc1ccc2n1[B-](F)(F)[N+]1=C(c3ccc[nH]3)C=CC1=C2)NCCCN1CCN(C2=Nc3cc(Cl)ccc3Nc3ccccc32)CC1` [Clozapine-a-2-NB590], for which the “NanoBRET Fold Response” value was determined as 0.94 (LGR5, 0.1μM tracer) and 0.79 (LGR5, 1μM tracer).

`COc1ccc2[nH]c(-c3ccc(CNC(=O)CCOCCOCCOCCOCCNC(=O)CCc4ccc5n4[B-](F)(F)[N+]4=C(c6ccc[nH]6)C=CC4=C5)cc3)c(CCNC(C)=O)c2n1` [AzomelatoninICO9-2-NB590]: the “NanoBRET Fold Response” value is reported as 1.35 (0.1μM tracer) and 0.94 (1μM tracer).

For `CN1CCN(C2=Nc3cc(Cl)ccc3Nc3ccc(CNC(=O)CCOCCOCCOCCOCCNC(=O)CCc4ccc5n4[B-](F)(F)[N+]4=C(c6ccc[nH]6)C=CC4=C5)cc32)CC1` [Clozapine-b-2-NB590], under “LGR5, 0.1μM tracer”, the “NanoBRET Fold Response” value was determined as 0.95.

Consider `COc1ccccc1N1CCN(CCCCN2C(=O)c3ccc(CNC(=O)CCOCCNC(=O)c4ccc(CNC(=O)CCc5ccc6n5[B-](F)(F)[N+]5=C(c7ccc[nH]7)C=CC5=C6)cc4)cc3C2=O)CC1` [NAN-190-3-NB590], for which the “NanoBRET Fold Response” value is 1.30 (LGR5, tracer 0.1μM) and 0.72 (LGR5, tracer 1μM).

For `N#CN=C(NCCCOc1cccc(CN2CCCCC2)c1)NCCNC(=O)CCOCCOCCOCCOCCNC(=O)CCc1ccc2n1[B-](F)(F)[N+]1=C(c3ccc[nH]3)C=CC1=C2` [Aminopotentidine-2-NB590], the “NanoBRET Fold Response” value is, setting by setting: (LGR5, tracer 0.1μM) 0.79; (LGR5, tracer 1μM) 1.15.

In the case of `CN(C)CCC=C1c2ccccc2CCc2ccc(C(=O)NCCNC(=O)CCOCCOCCOCCOCCNC(=O)CCc3ccc4n3[B-](F)(F)[N+]3=C(c5ccc[nH]5)C=CC3=C4)cc21` [Amitriptyline-b-2-NB590], the “NanoBRET Fold Response” value is, setting by setting: (tracer at 0.1μM, listed as amitriptyline-b-2-NB590) 1.19; (tracer at 1μM, listed as amitriptyline-b-2-NB590) 1.19.

With `COc1ccccc1N1CCN(CCCCN2C(=O)c3ccc(CNC(=O)CCOCCOCCOCCOCCNC(=O)CCc4ccc5n4[B-](F)(F)[N+]4=C(c6ccc[nH]6)C=CC4=C5)cc3C2=O)CC1` [NAN-190-2-NB590], the “NanoBRET Fold Response” value by setting is: (LGR5, tracer 0.1μM) 1.22; (LGR5, tracer 1μM) 0.83.

As to `O=C(CCOCCOCCOCCOCCNC(=O)CCc1ccc2n1[B-](F)(F)[N+]1=C(c3ccc[nH]3)C=CC1=C2)NCCCN1CCN(C2=Nc3ccccc3Oc3ccc(Cl)cc32)CC1` [Loxapine-a-2-NB590], the “NanoBRET Fold Response” value (LGR5, tracer 0.1μM) amounted to 0.94 and the “NanoBRET Fold Response” value (LGR5, tracer 1μM) is 0.97.

With `CN(CCC=C1c2ccccc2CCc2ccccc21)C(=O)CCOCCOCCOCCOCCNC(=O)CCc1ccc2n1[B-](F)(F)[N+]1=C(c3ccc[nH]3)C=CC1=C2` [Amitriptyline-e-2-NB590], where the note is “tracer at 1μM”, the “NanoBRET Fold Response” value worked out at 0.85.

Consider `CCCn1c(=O)c2[nH]c(-c3ccc(OCC(=O)NCCNC(=O)CCOCCNC(=O)c4ccc(CNC(=O)CCc5ccc6n5[B-](F)(F)[N+]5=C(c7ccc[nH]7)C=CC5=C6)cc4)cc3)nc2n(CCC)c1=O` [XAC-3-NB590], for which the “NanoBRET Fold Response” value reads like this: (LGR5, tracer 0.1μM) 0.95; (LGR5, tracer 1μM) 0.89.

Take `CN(C)CCC=C1c2ccccc2CCc2ccc(C(=O)NCCNC(=O)CCOCCOCCOCCOCCNC(=O)CCc3ccc4n3[B-](F)(F)[N+]3=C(c5ccc[nH]5)C=CC3=C4)cc21` [Amitriptyline-a-2-NB590]: the “NanoBRET Fold Response” value by setting is: (tracer at 0.1μM) 0.91; (tracer at 1μM) 1.02.

Take `CCOC(=O)c1cc(C#N)c(N2CCC(C(=O)NS(=O)(=O)Cc3ccccc3/C=C/C(=O)NCCNC(=O)CCc3ccc4n3[B-](F)(F)[N+]3=C(c5ccc[nH]5)C=CC3=C4)CC2)nc1C` [AZD1283-1-NB590]: the “NanoBRET Fold Response” value was 0.86 (LGR5, 0.1μM) and 0.91 (LGR5, 1μM).
